Assay results as given in the supplement of paper PMC13380429.

Tests used:
Details in all cases: 72 h
Calu-3 [1] = test: drug sensitivity score (DSS) for viability; higher = more toxic; extreme values may be limits of the assay
U2OS [2] = test: as above
Caco-2 [3] = test: as above
HepG2 [4] = test: as above
Vero E6 [5] = test: as above
Calu-3 [6] = test: cell viability relative to DMSO; higher = less toxic
U2OS [7] = test: as above
Caco-2 [8] = test: as above
HepG2 [9] = test: as above
Vero E6 [10] = test: as above
Calu-3 [11] = test: relative viability EC50 (midpoint between 100% and the lowest measured viability); higher = less toxic
U2OS [12] = test: as above
Caco-2 [13] = test: as above
HepG2 [14] = test: as above
Vero E6 [15] = test: as above

| SMILES | drug sensitivity score (Calu-3 [1]) | drug sensitivity score (U2OS [2]) | drug sensitivity score (Caco-2 [3]) | drug sensitivity score (HepG2 [4]) | drug sensitivity score (Vero E6 [5]) | cell viability (Calu-3 [6]; 1 nM) [%] | cell viability (Calu-3 [6]; 10 nM) [%] | cell viability (Calu-3 [6]; 100 nM) [%] | cell viability (Calu-3 [6]; 1000 nM) [%] | cell viability (Calu-3 [6]; 10000 nM) [%] | cell viability (U2OS [7]; 1 nM) [%] | cell viability (U2OS [7]; 10 nM) [%] | cell viability (U2OS [7]; 100 nM) [%] | cell viability (U2OS [7]; 1000 nM) [%] | cell viability (U2OS [7]; 10000 nM) [%] | cell viability (Caco-2 [8]; 1 nM) [%] | cell viability (Caco-2 [8]; 10 nM) [%] | cell viability (Caco-2 [8]; 100 nM) [%] | cell viability (Caco-2 [8]; 1000 nM) [%] | cell viability (Caco-2 [8]; 10000 nM) [%] | cell viability (HepG2 [9]; 1 nM) [%] | cell viability (HepG2 [9]; 10 nM) [%] | cell viability (HepG2 [9]; 100 nM) [%] | cell viability (HepG2 [9]; 1000 nM) [%] | cell viability (HepG2 [9]; 10000 nM) [%] | cell viability (Vero E6 [10]; 1 nM) [%] | cell viability (Vero E6 [10]; 10 nM) [%] | cell viability (Vero E6 [10]; 100 nM) [%] | cell viability (Vero E6 [10]; 1000 nM) [%] | cell viability (Vero E6 [10]; 10000 nM) [%] | relative viability EC50 (Calu-3 [11]) [µM] | relative viability EC50 (U2OS [12]) [µM] | relative viability EC50 (Caco-2 [13]) [µM] | relative viability EC50 (HepG2 [14]) [µM] | relative viability EC50 (Vero E6 [15]) [µM] |
| --- | --- | --- | --- | --- | --- | --- | --- | --- | --- | --- | --- | --- | --- | --- | --- | --- | --- | --- | --- | --- | --- | --- | --- | --- | --- | --- | --- | --- | --- | --- | --- | --- | --- | --- | --- |
| COC(=O)c1sccc1S(=O)(=O)Nc1ccc(Nc2ccccc2)cc1OC [GSK0660] | 0 | 0 | 0 | 0 | 0 | 106 | 102 | 101 | 93.1 | 102 | 101 | 95.4 | 98.8 | 95.5 | 93.5 | 96.8 | 86.2 | 104 | 105 | 98.9 | 91.4 | 109 | 102 | 101 | 92.6 | 91.9 | 104 | 94.8 | 102 | 104 | > 10 | > 10 | > 10 | > 10 | > 10 |
| NC(=O)C1=CN([C@@H]2O[C@H](COP(=O)(O)OP(=O)(O)OC[C@H]3O[C@@H](n4cnc5c(N)ncnc54)[C@H](OP(=O)(O)O)[C@@H]3O)[C@@H](O)[C@H]2O)C=CC1 [NADPH] | 0.1 | 0 | 0 | 0 | 0 | 90.8 | 85.1 | 87.7 | 91 | 101 | 94.1 | 101 | 98.4 | 102 | 98.1 | 86.7 | 92.7 | 88.4 | 93 | 91.9 | 101 | 104 | 97.7 | 86.2 | 104 | 105 | 86 | 103 | 94.6 | 99.5 | > 10 | > 10 | > 10 | > 10 | > 10 |
| COCCOc1ccc2c(c1)ncn2-c1ccc2cccc(N3CCC(N)CC3)c2n1 | 0 | 3.7 | 0 | 6.1 | 3.6 | 96 | 92.7 | 103 | 123 | 87.4 | 98.6 | 104 | 95.3 | 95.4 | 45.2 | 94.1 | 108 | 98.2 | 104 | 90.4 | 99.3 | 101 | 98.3 | 93.3 | 8.1 | 98.3 | 97.1 | 102 | 94.9 | 48.5 | > 10 | 2.47 | > 10 | 2.57 | 2.35 |
| CN1C(=O)OC(C)(C)C1=O [trimethadione] | 0 | 0 | 0 | 3.4 | 0 | 96.1 | 102 | 97.9 | 118 | 108 | 103 | 99.9 | 103 | 105 | 108 | 101 | 97.3 | 114 | 90 | 93.3 | 103 | 105 | 93.6 | 80.4 | 90 | 100 | 100 | 101 | 85.1 | 104 | > 10 | > 10 | > 10 | > 10 | > 10 |
| CCCC[C@H](NC(=O)[C@@H]1[C@@H]2[C@H](CN1C(=O)[C@@H](NC(=O)NC1(CS(=O)(=O)C(C)(C)C)CCCCC1)C(C)(C)C)C2(C)C)C(=O)C(=O)NC1CC1 [narlaprevir] | 0 | 0 | 0 | 0 | 0.1 | 90.9 | 108 | 92.5 | 94.5 | 107 | 104 | 98.8 | 100 | 96.9 | 97.1 | 100 | 96.4 | 102 | 93.8 | 95.5 | 102 | 112 | 96.3 | 103 | 94.7 | 98.1 | 100 | 102 | 99.5 | 87.8 | > 10 | > 10 | > 10 | > 10 | > 10 |
| Cc1cc(-n2c(=O)[nH]c(=O)n(C)c2=O)ccc1Oc1ccc(SC(F)(F)F)cc1 [toltrazuril] | 0 | 0 | 0 | 0 | 0 | 98.8 | 83.1 | 105 | 106 | 101 | 97.2 | 95.2 | 93.1 | 99.6 | 92.1 | 104 | 109 | 105 | 97.1 | 97.4 | 90.4 | 107 | 99.5 | 95.9 | 102 | 99.5 | 105 | 101 | 96.3 | 95.8 | > 10 | > 10 | > 10 | > 10 | > 10 |
| CNCCCOc1cc(F)c(-c2c(Cl)nc3ncnn3c2N[C@@H](C)C(F)(F)F)c(F)c1 [cevipabulin] | 12.5 | 18.1 | 13.7 | 22.9 | 17.9 | 106 | 116 | 83.4 | 43.7 | 34.7 | 94.8 | 102 | 65.8 | 25.6 | 21 | 102 | 110 | 72.3 | 44.7 | 48.1 | 96.8 | 102 | 29.3 | 21.9 | 22.8 | 105 | 106 | 89.5 | 11.6 | 8.3 | 0.237 | 0.121 | 0.1 | 0.0431 | 0.241 |
